The text below walks through data of PubChem BioAssay AID1745844 (Carcinogenic Potency Database (CPDB), 2022).

Several values for one entry are separate records, joined by “and”; a condition that tells them apart may be missing. Equal values may be shown once. Activity calls are given as the source filed them. How the calls were made is not given here.

For the series, the system named is rodent lifetime carcinogenesis bioassay, tumor incidence TD50. Description: chronic cancer bioassays in animals – CPDB, compiled studies (AID 1745844).

On to `NNC(=O)c1ccncc1`, for which the TD50 (commonly the dose at which the toxic effect under study appears in half of the subjects) by setting is: (hamster, strain Syrian Golden, females, in drinking water, site: forestomach, lesion: papilloma, dosed 121 weeks, study length 121 weeks) 575 mg/kg/day (inactive); (mouse, strain A, males, by gavage, site: liver, lesion: carcinoma, dosed 79 weeks, study length 79 weeks) 159 mg/kg/day; (mouse, strain A, males, by gavage, site: lung, lesion: carcinoma, dosed 79 weeks, study length 79 weeks) 206 mg/kg/day; (mouse, strain A, males, by gavage, site: several sites, sites named in the paper, lesion: carcinoma, dosed 79 weeks, study length 79 weeks) 219 mg/kg/day; (mouse, strain AKR, females, in drinking water, site: lung, lesion: one or several types, types not named, dosed 70 weeks, study length 70 weeks) 89.6 mg/kg/day (inactive); (mouse, strain AKR, males, in drinking water, site: lung, lesion: one or several types, types not named, dosed 59 weeks, study length 59 weeks) 202 mg/kg/day (inactive). Besides, the TD50 runs as follows: (mouse, strain C3H (MTV+), females, in drinking water, site: lung, lesion: adenoma, dosed 72 weeks, study length 72 weeks) 755 mg/kg/day; (mouse, strain C3H (MTV+), males, in drinking water, site: lung, lesion: adenoma, dosed 72 weeks, study length 72 weeks) 219 mg/kg/day; (mouse, strain CBA/Cb/Se, females, by gavage, site: liver, lesion: hepatoma, dosed 36 weeks, study length 84 weeks) 187 mg/kg/day (inactive); (mouse, strain CBA/Cb/Se, females, by gavage, site: lung, lesion: several types, types named in the paper, dosed 36 weeks, study length 84 weeks) 11.2 mg/kg/day; (mouse, strain CBA/Cb/Se, males, by gavage, site: liver, lesion: hepatoma, dosed 36 weeks, study length 74 weeks) 165 mg/kg/day (inactive); (mouse, strain CBA/Cb/Se, males, by gavage, site: lung, lesion: several types, types named in the paper, dosed 36 weeks, study length 74 weeks) 12.2 mg/kg/day. The TD50 is, setting by setting: (mouse, strain Not specified, both sexes, by gavage, site: any site (literature study), lesion: several types, types named in the paper, dosed 52 weeks, study length 52 weeks) 14.1 mg/kg/day; (mouse, strain Not specified, both sexes, by gavage, site: lung, lesion: adenoma, dosed 52 weeks, study length 52 weeks) 19.3 mg/kg/day; (mouse, strain Not specified, both sexes, by gavage, site: mammary gland, lesion: adenocarcinoma, dosed 52 weeks, study length 52 weeks) 80.9 mg/kg/day; (mouse, strain Swiss albino, females, in drinking water, site: lung, lesion: adenocarcinoma, dosed 80 weeks, study length 80 weeks) 435 mg/kg/day; (mouse, strain Swiss albino, females, in drinking water, site: lung, lesion: adenoma, dosed 80 weeks, study length 80 weeks) 189 mg/kg/day; (mouse, strain Swiss albino, females, in drinking water, site: lung, lesion: adenoma, dosed 101 weeks, study length 106 weeks) 386 mg/kg/day. Besides, the TD50 was 153 mg/kg/day (mouse, strain Swiss albino, females, in drinking water, site: lung, lesion: several types, types named in the paper, dosed 80 weeks, study length 80 weeks); 124 mg/kg/day (mouse, strain Swiss albino, males, in drinking water, site: lung, lesion: adenoma, dosed 80 weeks, study length 80 weeks); 104 mg/kg/day (mouse, strain Swiss albino, males, in drinking water, site: lung, lesion: adenoma, dosed 86 weeks, study length 87 weeks); 28.8 mg/kg/day (mouse, strain Swiss, both sexes, by gavage, site: lung, lesion: adenocarcinoma, dosed 95 weeks, study length 95 weeks); 24.5 mg/kg/day (mouse, strain Swiss, both sexes, by gavage, site: lung, lesion: one or several types, types not named, dosed 97 weeks, study length 97 weeks); 88.6 mg/kg/day (mouse, strain Swiss, females, by gavage, site: liver, lesion: carcinoma, dosed 81 weeks, study length 83 weeks). The TD50 runs as follows: (mouse, strain Swiss, females, by gavage, site: lung, lesion: carcinoma, dosed 81 weeks, study length 83 weeks) 88.6 mg/kg/day; (mouse, strain Swiss, females, by gavage, site: lung, lesion: carcinoma, dosed 83 weeks, study length 83 weeks) 53.1 mg/kg/day; (mouse, strain Swiss, females, by gavage, site: several sites, sites named in the paper, lesion: carcinoma, dosed 81 weeks, study length 83 weeks) 39.9 mg/kg/day; (mouse, strain Swiss, females, by gavage, site: several sites, sites named in the paper, lesion: carcinoma, dosed 83 weeks, study length 83 weeks) 53.1 mg/kg/day; (mouse, strain Swiss, males, by gavage, site: liver, lesion: carcinoma, dosed 79 weeks, study length 79 weeks) 88.8 mg/kg/day and 71.3 mg/kg/day; (mouse, strain Swiss, males, by gavage, site: liver, lesion: carcinoma, dosed 85 weeks, study length 85 weeks) 211 mg/kg/day. The TD50 is 41.1 mg/kg/day and 39.2 mg/kg/day (mouse, strain Swiss, males, by gavage, site: lung, lesion: carcinoma, dosed 79 weeks, study length 79 weeks); 28.9 mg/kg/day (mouse, strain Swiss, males, by gavage, site: lung, lesion: carcinoma, dosed 85 weeks, study length 85 weeks); 25.7 mg/kg/day and 21.2 mg/kg/day (mouse, strain Swiss, males, by gavage, site: several sites, sites named in the paper, lesion: carcinoma, dosed 79 weeks, study length 79 weeks); 24 mg/kg/day (mouse, strain Swiss, males, by gavage, site: several sites, sites named in the paper, lesion: carcinoma, dosed 85 weeks, study length 85 weeks); 120 mg/kg/day (rat, strain Cb/Sc, females, in drinking water, site: mammary gland, lesion: fibroadenoma, dosed 48 weeks, study length 64 weeks); 199 mg/kg/day (rat, strain Cb/Sc, males, in drinking water, site: liver, lesion: one or several types, types not named, dosed 48 weeks, study length 84 weeks). Besides, the TD50 (rat, strain Cb/Sc, males, in drinking water, site: lung, lesion: several types, types named in the paper, dosed 48 weeks, study length 84 weeks) was 1070 mg/kg/day. For the same compound, the carcinogen call is, setting by setting: (hamster, strain Syrian Golden, males, in drinking water, site: liver, lesion: hemangioma, dosed 130 weeks, study length 130 weeks) “negative (inactive)”; (mouse, strain AKR, males, in drinking water, site: liver, lesion: hemangioma, dosed 59 weeks, study length 59 weeks) “negative (inactive)”; (mouse, strain Swiss albino, females, in drinking water, site: liver, lesion: hemangioma, dosed 80 weeks, study length 80 weeks) “negative (inactive)”; (mouse, strain Swiss albino, females, in drinking water, site: liver, lesion: hemangioma, dosed 101 weeks, study length 106 weeks) “negative (inactive)”; (mouse, strain Swiss albino, males, in drinking water, site: liver, lesion: hemangioma, dosed 80 weeks, study length 80 weeks) “negative (inactive)”.

`Nc1ccc(Cc2ccc(N)c(Cl)c2)cc1Cl`: the TD50 is 52.8 mg/kg/day (mouse, strain CD-1 HaM/ICR, females, in feed, site: any site (literature study), lesion: several types, types named in the paper, dosed 77 weeks, study length 90 weeks); 66.6 mg/kg/day (mouse, strain CD-1 HaM/ICR, females, in feed, site: liver, lesion: hepatoma, dosed 77 weeks, study length 90 weeks); 66.6 mg/kg/day (mouse, strain CD-1 HaM/ICR, females, in feed, site: liver, lesion: several types, types named in the paper, dosed 77 weeks, study length 90 weeks); 556 mg/kg/day (inactive) (mouse, strain CD-1 HaM/ICR, females, in feed, site: lung, lesion: several types, types named in the paper, dosed 77 weeks, study length 90 weeks); 97.9 mg/kg/day (mouse, strain CD-1 HaM/ICR, males, in feed, site: any site (literature study), lesion: several types, types named in the paper, dosed 77 weeks, study length 94 weeks); 471 mg/kg/day (mouse, strain CD-1 HaM/ICR, males, in feed, site: liver, lesion: several types, types named in the paper, dosed 77 weeks, study length 94 weeks). Moreover, the TD50 was 342 mg/kg/day (inactive) (mouse, strain CD-1 HaM/ICR, males, in feed, site: lung, lesion: several types, types named in the paper, dosed 77 weeks, study length 94 weeks); 33.4 mg/kg/day (rat, strain Charles River CD (Sprague-Dawley), males, in feed, site: any site (literature study), lesion: several types, types named in the paper, dosed 77 weeks, study length 98 weeks); 70.1 mg/kg/day (rat, strain Charles River CD (Sprague-Dawley), males, in feed, site: liver, lesion: several types, types named in the paper, dosed 77 weeks, study length 98 weeks).

Take `C[C@@H]1O[C@@H](OC[C@H]2O[C@@H](Oc3c(-c4ccc(O)c(O)c4)oc4cc(O)cc(O)c4c3=O)[C@H](O)[C@@H](O)[C@@H]2O)[C@H](O)[C@H](O)[C@H]1O`: the TD50 was 132000 mg/kg/day (inactive) (hamster, strain Syrian Golden, females, in feed, site: adrenal gland, lesion: cortical adenoma, dosed 104 weeks, study length 104 weeks); 140000 mg/kg/day (inactive) (hamster, strain Syrian Golden, females, in feed, site: uterus, lesion: leiomyoma, dosed 104 weeks, study length 104 weeks); 90400 mg/kg/day (inactive) (rat, strain ACI, females, in feed, site: adrenal gland, lesion: pheochromocytoma, dosed 121 weeks, study length 121 weeks); 90400 mg/kg/day (inactive) (rat, strain ACI, females, in feed, site: heart, lesion: sarcoma, dosed 121 weeks, study length 121 weeks); 8910 mg/kg/day (inactive) (rat, strain ACI, females, in feed, site: pituitary gland, lesion: adenoma, dosed 77 weeks, study length 77 weeks); 8910 mg/kg/day (inactive) (rat, strain ACI, females, in feed, site: urinary bladder, lesion: papilloma, dosed 77 weeks, study length 77 weeks). The TD50 by setting is: (rat, strain ACI, males, in feed, site: adrenal gland, lesion: cortical adenoma, dosed 77 weeks, study length 77 weeks) 5710 mg/kg/day (inactive); (rat, strain ACI, males, in feed, site: colon, lesion: adenoma, dosed 121 weeks, study length 121 weeks) 72300 mg/kg/day (inactive); (rat, strain ACI, males, in feed, site: ileum, lesion: adenoma, dosed 121 weeks, study length 121 weeks) 72300 mg/kg/day (inactive); (rat, strain ACI, males, in feed, site: testis, lesion: interstitial-cell tumor, dosed 77 weeks, study length 77 weeks) 3530 mg/kg/day (inactive); (rat, strain Sprague-Dawley, females, by gavage, site: liver, lesion: hepatocellular carcinoma, dosed 104 weeks, study length 138 weeks) 44800 mg/kg/day (inactive). In addition, the carcinogen call runs as follows: (hamster, strain Syrian Golden, males, in feed, site: adrenal gland, lesion: cortical adenoma, dosed 104 weeks, study length 104 weeks) “negative (inactive)”; (hamster, strain Syrian Golden, males, in feed, site: forestomach, lesion: papilloma, dosed 104 weeks, study length 104 weeks) “negative (inactive)”; (rat, strain Sprague-Dawley, males, by gavage, site: liver, lesion: hepatocellular carcinoma, dosed 104 weeks, study length 134 weeks) “negative (inactive)”.
